The target in one assay is T1, opioid receptor delta (Homo sapiens, UniProt P41143).
T1 construct: expressed in transfected cells
T1 sequence (P41143 whole entry): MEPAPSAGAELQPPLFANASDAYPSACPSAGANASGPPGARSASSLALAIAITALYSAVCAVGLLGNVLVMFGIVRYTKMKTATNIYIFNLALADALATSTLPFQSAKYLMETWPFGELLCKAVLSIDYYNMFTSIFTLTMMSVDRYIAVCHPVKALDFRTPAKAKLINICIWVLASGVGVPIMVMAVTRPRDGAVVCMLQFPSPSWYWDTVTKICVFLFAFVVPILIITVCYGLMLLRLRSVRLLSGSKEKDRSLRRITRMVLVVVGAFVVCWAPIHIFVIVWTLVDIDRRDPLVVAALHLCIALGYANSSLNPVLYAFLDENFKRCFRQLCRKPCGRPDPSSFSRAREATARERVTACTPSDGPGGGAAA
Nature of the assay: GTPγ[35S] binding assay, antagonism of BW-373U86. Format: biochemical. Conditions: read-out: Delta functional (GTPγ[35S] binding Ki). The procedure: (§1) Membranes were prepared from cells as described (Bass et al, 1996). GTPγ[5S] binding assays were performed in a 96 well FlashPlate™ format in duplicate using […] GTPγ[^35S] and 5 μg membrane per well in assay buffer composed of 50 mM Tris HCl, pH 7.4, 5 mM MgCl2, 1 mM EDTA, 100 mM NaCl, 30 μM GDP, 0.1% bovine serum albumin and the following protease inhibitors: 100 μg/ml bacitracin, 100 μg/ml benzamidine, 5 μg/ml aprotinin, 5 μg/ml leupeptin. The assay mix was then incubated at 30° C. with increasing concentrations of antagonist (10^−10 M to 10^−5 M) for 10 minutes and challenged with the agonists BW-373U86 (1 nM), dynorphin-A (10 nM), […] (1 μM) for opioid receptors delta, kappa, and mu, respectively. The assays were performed at 30° C. for one hour. The FlashPlates were then centrifuged at 2000×g for 10 minutes. Stimulation of GTPγ[^35S] binding was then quantified using a Wallac Microbeta and Ki calculations were done using Prism™ by Graphpad.
A general note: Binding of GTPγS marks nucleotide exchange on a G protein.
T2 sequence (P35372 whole entry): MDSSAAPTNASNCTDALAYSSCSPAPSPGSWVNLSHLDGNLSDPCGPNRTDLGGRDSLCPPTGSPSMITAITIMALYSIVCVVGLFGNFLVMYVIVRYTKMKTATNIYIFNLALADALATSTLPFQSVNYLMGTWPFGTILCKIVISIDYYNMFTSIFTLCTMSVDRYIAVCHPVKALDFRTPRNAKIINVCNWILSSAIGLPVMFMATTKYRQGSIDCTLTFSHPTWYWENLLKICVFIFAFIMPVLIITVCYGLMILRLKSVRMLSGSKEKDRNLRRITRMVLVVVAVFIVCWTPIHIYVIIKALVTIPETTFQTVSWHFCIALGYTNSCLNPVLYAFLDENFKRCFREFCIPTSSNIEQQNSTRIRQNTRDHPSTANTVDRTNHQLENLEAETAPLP
`Cc1cc(C(N)=O)ccc1-c1ccc(CNCc2ccccc2F)cc1` [4B-26]: the Ki amounted to 5.72 nM.
`Cc1cc(C(N)=O)ccc1-c1ccc(CNC(C)c2ccc3ccccc3c2)cc1` (stereo not drawn) [4B-27]: the Ki was 2.98 nM.
Still for that read-out and setting: in the case of `Cc1cc(C(N)=O)ccc1-c1ccc(CN[C@@H]2CCCc3ccccc32)cc1` [4B-28] it was 26.3 nM; in that of `CC(C)CCNCc1ccc(-c2ccc(C(N)=O)cc2Cl)cc1` [4B-29], 6.12 nM; in that of `NC(=O)c1ccc(-c2ccc(CNC3Cc4ccccc4C3)cc2)c(Cl)c1` [4B-30], 0.378 nM.
Same read-out and setting: in the case of `Cc1cc(C(N)=O)ccc1-c1ccc(CNCC2Cc3ccccc3O2)cc1` (stereo not drawn) [4B-31] it was 1.09 nM; in that of `Cc1cc(C(N)=O)cc(C)c1-c1ccc(CNC2Cc3ccccc3C2)cc1` [4B-32], 0.0696 nM.
On the same count and under the same terms, in the case of `Cc1cc(C(N)=O)ccc1-c1ccc(CN[C@@H]2CCc3ccccc32)cc1` [4B-33] it was 2.49 nM.

The same assay, now with this note: read-out: Delta functional Ki (GTPγ[35S] binding).
As to `Cc1cc(C(N)=O)ccc1-c1ccc(CN[C@H]2CCc3ccccc32)cc1` [4B-34], the Ki came out at 1.09 nM.
On the same count and under the same terms, in the case of `Cc1cc(C(N)=O)ccc1-c1ccc(CNCC2Cc3ccccc3C2)cc1` [4B-35] it was 0.687 nM; in that of `Cc1cc(C(N)=O)ccc1-c1ccc(CNCC2CCc3ccccc3O2)cc1` (stereo not drawn) [4B-36], 0.453 nM; in that of `NC(=O)c1ccc(-c2ccc(CNCCC3CCOCC3)cc2)c(Cl)c1` [4B-37], 60.3 nM.
Still for that read-out and setting: in the case of `NC(=O)c1ccc(-c2ccc(CN[C@H]3CCc4ccccc43)cc2)c(Cl)c1` [4B-38] it was 5.59 nM; in that of `NC(=O)c1ccc(-c2ccc(CNCCC3CCCC3)cc2)c(Cl)c1` [4B-39], 0.612 nM.
Regarding `Cc1cc(C(N)=O)ccc1-c1ccc(CNCC2CCOCC2)cc1` [4B-40], the Ki was found to be 20.4 nM.
Same read-out and setting: in the case of `Cc1cc(C(N)=O)ccc1-c1ccc(CN[C@H](C)c2ccccc2)cc1` [4B-41] it was 14.1 nM; in that of `Cc1cc(C(N)=O)ccc1-c1ccc(CN[C@@H](C)c2ccccc2)cc1` [4B-42], 22.2 nM.
On the same count and under the same terms, in the case of `Cc1cc(C(N)=O)ccc1-c1ccc(CNCc2cccnc2)cc1` [4B-43] it was 10.6 nM; in that of `Cc1cc(C(N)=O)ccc1-c1ccc(CNCc2ccccn2)cc1` [4B-44], 26.1 nM.
Same read-out and setting: in the case of `CC(C)CCNCc1ccc(-c2ccc(C(N)=O)cc2OCc2ccccc2)cc1` [4B-45] it was 44.6 nM.
Take `CC(C)CCNCc1ccc(-c2ccc(C(N)=O)cc2O)cc1` [4B-47]: the Ki amounted to 543 nM.
On the same count and under the same terms, in the case of `CCc1cc(C(N)=O)ccc1-c1ccc(CNCCC(C)C)cc1` [4B-48] it was 16.1 nM; in that of `Cc1cc(C(N)=O)cc(Cl)c1-c1ccc(CNCCC(C)C)cc1` [4B-49], 6.66 nM; in that of `Cc1cc(C(N)=O)ccc1-c1cc(F)c(CNCCC2CCOCC2)c(F)c1` [4B-51], 0.707 nM.

A further assay addresses T2, opioid receptor mu (Homo sapiens, UniProt P35372).
T2 construct: expressed in transfected cells
Nature of the assay: GTPγ[35S] binding assay, antagonism of endorphin. Format: biochemical. As to conditions: read-out: Mu functional (GTPγ[35S] binding Ki). The procedure: as §1
On to `Cc1cc(C(N)=O)ccc1-c1ccc(CNCc2ccccc2F)cc1` [4B-26], for which the Ki worked out at 4.55 nM.
Same read-out and setting: in the case of `Cc1cc(C(N)=O)ccc1-c1ccc(CNC(C)c2ccc3ccccc3c2)cc1` (stereo not drawn) [4B-27] it was 14.3 nM; in that of `Cc1cc(C(N)=O)ccc1-c1ccc(CN[C@@H]2CCCc3ccccc32)cc1` [4B-28], 26.1 nM.
On to `CC(C)CCNCc1ccc(-c2ccc(C(N)=O)cc2Cl)cc1` [4B-29], for which the Ki came out at 16.2 nM.
Still for that read-out and setting: in the case of `NC(=O)c1ccc(-c2ccc(CNC3Cc4ccccc4C3)cc2)c(Cl)c1` [4B-30] it was 0.41 nM; in that of `Cc1cc(C(N)=O)ccc1-c1ccc(CNCC2Cc3ccccc3O2)cc1` (stereo not drawn) [4B-31], 4.05 nM.
The same measure, in the same setting: in the case of `Cc1cc(C(N)=O)cc(C)c1-c1ccc(CNC2Cc3ccccc3C2)cc1` [4B-32] it was 0.0492 nM.
The same measure, in the same setting: in the case of `Cc1cc(C(N)=O)ccc1-c1ccc(CN[C@@H]2CCc3ccccc32)cc1` [4B-33] it was 4.95 nM.

Still in this assay, the particulars now being: read-out: Mu functional Ki (GTPγ[35S] binding).
`Cc1cc(C(N)=O)ccc1-c1ccc(CN[C@H]2CCc3ccccc32)cc1` [4B-34]: the Ki is 1.08 nM.
Turning to `Cc1cc(C(N)=O)ccc1-c1ccc(CNCC2Cc3ccccc3C2)cc1` [4B-35], the Ki stood at 1.32 nM.
As for `Cc1cc(C(N)=O)ccc1-c1ccc(CNCC2CCc3ccccc3O2)cc1` (stereo not drawn) [4B-36], the Ki came to 1.45 nM.
The same measure, in the same setting: in the case of `NC(=O)c1ccc(-c2ccc(CNCCC3CCOCC3)cc2)c(Cl)c1` [4B-37] it was 13.7 nM; in that of `NC(=O)c1ccc(-c2ccc(CN[C@H]3CCc4ccccc43)cc2)c(Cl)c1` [4B-38], 3.33 nM; in that of `NC(=O)c1ccc(-c2ccc(CNCCC3CCCC3)cc2)c(Cl)c1` [4B-39], 1.87 nM.
Same read-out and setting: in the case of `Cc1cc(C(N)=O)ccc1-c1ccc(CNCC2CCOCC2)cc1` [4B-40] it was 48.3 nM; in that of `Cc1cc(C(N)=O)ccc1-c1ccc(CN[C@H](C)c2ccccc2)cc1` [4B-41], 61.4 nM; in that of `Cc1cc(C(N)=O)ccc1-c1ccc(CN[C@@H](C)c2ccccc2)cc1` [4B-42], 65.4 nM.
Still for that read-out and setting: in the case of `Cc1cc(C(N)=O)ccc1-c1ccc(CNCc2cccnc2)cc1` [4B-43] it was 70.2 nM; in that of `Cc1cc(C(N)=O)ccc1-c1ccc(CNCc2ccccn2)cc1` [4B-44], 61.7 nM.
Regarding `CC(C)CCNCc1ccc(-c2ccc(C(N)=O)cc2OCc2ccccc2)cc1` [4B-45], the Ki was found to be 40.2 nM.
Still for that read-out and setting: in the case of `CC(C)CCNCc1ccc(-c2ccc(C(N)=O)cc2O)cc1` [4B-47] it was 549 nM; in that of `CCc1cc(C(N)=O)ccc1-c1ccc(CNCCC(C)C)cc1` [4B-48], 12 nM.
Same read-out and setting: in the case of `Cc1cc(C(N)=O)cc(Cl)c1-c1ccc(CNCCC(C)C)cc1` [4B-49] it was 2.72 nM.
Still for that read-out and setting: in the case of `Cc1cc(C(N)=O)ccc1-c1cc(F)c(CNCCC2CCOCC2)c(F)c1` [4B-51] it was 2.16 nM.

The target of the next assay is T3, opioid receptor kappa (Homo sapiens, UniProt P41145).
T3 construct: expressed in transfected cells
T3 sequence (P41145 whole entry): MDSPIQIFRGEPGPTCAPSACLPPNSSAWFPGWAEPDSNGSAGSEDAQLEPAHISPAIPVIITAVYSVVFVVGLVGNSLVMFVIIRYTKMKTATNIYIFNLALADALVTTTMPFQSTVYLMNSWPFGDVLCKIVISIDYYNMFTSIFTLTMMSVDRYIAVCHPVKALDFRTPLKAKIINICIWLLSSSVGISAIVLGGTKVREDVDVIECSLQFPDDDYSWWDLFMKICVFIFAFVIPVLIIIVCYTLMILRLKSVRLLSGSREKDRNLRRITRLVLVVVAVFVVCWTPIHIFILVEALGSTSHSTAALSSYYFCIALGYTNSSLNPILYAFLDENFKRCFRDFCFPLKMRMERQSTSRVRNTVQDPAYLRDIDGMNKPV
Nature of the assay: GTPγ[35S] binding assay, antagonism of dynorphin-A. The assay is classed as biochemical. As to conditions: read-out: Kappa functional (GTPγ[35S] binding Ki). The procedure: as §1
In the case of `Cc1cc(C(N)=O)ccc1-c1ccc(CNCc2ccccc2F)cc1` [4B-26], the Ki came out at 3.32 nM.
Consider `Cc1cc(C(N)=O)ccc1-c1ccc(CNC(C)c2ccc3ccccc3c2)cc1` (stereo not drawn) [4B-27], for which the Ki is 2.86 nM.
Regarding `Cc1cc(C(N)=O)ccc1-c1ccc(CN[C@@H]2CCCc3ccccc32)cc1` [4B-28], the Ki came out at 4.12 nM.
Still for that read-out and setting: in the case of `CC(C)CCNCc1ccc(-c2ccc(C(N)=O)cc2Cl)cc1` [4B-29] it was 6.1 nM; in that of `NC(=O)c1ccc(-c2ccc(CNC3Cc4ccccc4C3)cc2)c(Cl)c1` [4B-30], 0.842 nM.
The same measure, in the same setting: in the case of `Cc1cc(C(N)=O)ccc1-c1ccc(CNCC2Cc3ccccc3O2)cc1` (stereo not drawn) [4B-31] it was 3.71 nM.
As to `Cc1cc(C(N)=O)cc(C)c1-c1ccc(CNC2Cc3ccccc3C2)cc1` [4B-32], the Ki turned out to be 0.14 nM.
Turning to `Cc1cc(C(N)=O)ccc1-c1ccc(CN[C@@H]2CCc3ccccc32)cc1` [4B-33], the Ki is 0.911 nM.

The assay is the same for the next values; noted with them: read-out: Kappa functional Ki (GTPγ[35S] binding).
In the case of `Cc1cc(C(N)=O)ccc1-c1ccc(CN[C@H]2CCc3ccccc32)cc1` [4B-34], the Ki amounted to 0.512 nM.
With `Cc1cc(C(N)=O)ccc1-c1ccc(CNCC2Cc3ccccc3C2)cc1` [4B-35], the Ki was found to be 7.13 nM.
The same measure, in the same setting: in the case of `Cc1cc(C(N)=O)ccc1-c1ccc(CNCC2CCc3ccccc3O2)cc1` (stereo not drawn) [4B-36] it was 6.5 nM; in that of `NC(=O)c1ccc(-c2ccc(CNCCC3CCOCC3)cc2)c(Cl)c1` [4B-37], 4.61 nM; in that of `NC(=O)c1ccc(-c2ccc(CN[C@H]3CCc4ccccc43)cc2)c(Cl)c1` [4B-38], 1.14 nM.
Still for that read-out and setting: in the case of `NC(=O)c1ccc(-c2ccc(CNCCC3CCCC3)cc2)c(Cl)c1` [4B-39] it was 1.28 nM; in that of `Cc1cc(C(N)=O)ccc1-c1ccc(CNCC2CCOCC2)cc1` [4B-40], 9.05 nM.
Still for that read-out and setting: in the case of `Cc1cc(C(N)=O)ccc1-c1ccc(CN[C@H](C)c2ccccc2)cc1` [4B-41] it was 13.5 nM; in that of `Cc1cc(C(N)=O)ccc1-c1ccc(CN[C@@H](C)c2ccccc2)cc1` [4B-42], 6.19 nM.
As for `Cc1cc(C(N)=O)ccc1-c1ccc(CNCc2cccnc2)cc1` [4B-43], the Ki was 8.95 nM.
Still for that read-out and setting: in the case of `Cc1cc(C(N)=O)ccc1-c1ccc(CNCc2ccccn2)cc1` [4B-44] it was 25.7 nM; in that of `CC(C)CCNCc1ccc(-c2ccc(C(N)=O)cc2OCc2ccccc2)cc1` [4B-45], 9.84 nM.
On the same count and under the same terms, in the case of `CC(C)CCNCc1ccc(-c2ccc(C(N)=O)cc2O)cc1` [4B-47] it was 80.6 nM; in that of `CCc1cc(C(N)=O)ccc1-c1ccc(CNCCC(C)C)cc1` [4B-48], 13.9 nM.
Same read-out and setting: in the case of `Cc1cc(C(N)=O)cc(Cl)c1-c1ccc(CNCCC(C)C)cc1` [4B-49] it was 2.31 nM; in that of `Cc1cc(C(N)=O)ccc1-c1cc(F)c(CNCCC2CCOCC2)c(F)c1` [4B-51], 1.95 nM.

Values taken from patent US7615651B2, “Diaryl, dipyridinyl and aryl-pyridinyl derivatives and uses thereof” (Pfizer Inc., priority 2006, dated 2009).
